Here are results for three compounds from patent publication US4335249A, “Herbicidal diphenyl ethers, sulfides, sulfoxides and sulfones” (Rohm and Haas Company, priority 1976, dated 1982).

Common to all, as to type: in vivo
Test [1] has as its system cocklebur (Xanthium pensylvanicum). As to the kind of experiment: Preemergence herbicidal activity, cocklebur. The following applies: Xanthium strumarium, pre-emergence, 336 h, 2 lb/A. The method in brief:
(§1)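 For postemergence testing, seedlings grow two weeks in soil flats before spraying; for preemergence testing, flats are sprayed just after sowing. Application uses acetone stock diluted in water, 50 gal/acre carrier volume, stated lb/A rate. Control recorded as mean percent killed roughly two weeks later.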

Test [2] deals with marigold (Tagetes spp.). The experiment in a line: Preemergence herbicidal activity, marigold. The following applies: pre-emergence, 336 h, 2 lb/A. The method in brief: as §1
For test [3], the system named is morningglory (Ipomoca spp.). The experiment in a line: Preemergence herbicidal activity, morningglory. The following applies: Ipomoea, pre-emergence, 336 h, 2 lb/A. Summed up: as §1
In test [4] the test system is tomato (Lycopersicon esculentum). The experiment in a line: Preemergence herbicidal activity, tomato. The following applies: Solanum lycopersicum, pre-emergence, 336 h; Pre, 2 lb/A. The method in brief: as §1
The test system of test [5] is velvetleaf (Abutilon theophrasti). The experiment in a line: Preemergence herbicidal activity, velvetleaf. The following applies: Abutilon theophrasti, pre-emergence, 336 h; Pre, 2 lb/A. The method in brief:
as §1

Test [6] concerns barnyardgrass (Echinochloa crusgalli). As to the kind of experiment: Preemergence herbicidal activity, barnyardgrass. The settings on record: Echinochloa crus-galli, pre-emergence, 336 h; Pre, 2 lb/A. Summed up: (§2)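 Flats of soil-planted weed seeds were treated either right after sowing (preemergence) or two weeks after germination (postemergence). Application was a spray of acetone solution diluted in water, 50 gallons per acre carrier, dosed in lb/A.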

Test [7] relates to downybrome (Bromus tectorum). As to the kind of experiment: Preemergence herbicidal activity, downybrome. The following applies: Bromus tectorum, pre-emergence, 336 h, Pre, 2 lb/A. Summed up: as §1
The subject of test [8] is foxtail (Setaria spp.). The experiment in a line: Preemergence herbicidal activity, foxtail. The settings on record: Setaria, pre-emergence, 336 h; Pre, 2 lb/A. Summed up: as §1
For test [9], the system named is yellow nutsedge (Cyperus esculentus). The experiment in a line: Preemergence herbicidal activity, yellow nutsedge. The settings on record: Cyperus, pre-emergence, 336 h, 2 lb/A. Summed up:
as §1

For test [10], the system named is wild oats (Avena fatua). As to the kind of experiment: Preemergence herbicidal activity, wild oats. The following applies: Avena fatua, pre-emergence, 336 h, Pre, 2 lb/A; read-out: % control, Wild oat. Summed up: as §1
Test [11] has as its system cocklebur (Xanthium pensylvanicum). As to the kind of experiment: Postemergence herbicidal activity, cocklebur. The settings on record: Xanthium strumarium, post-emergence, 336 h, 2 lb/A. Summed up:
as §1

For test [12], the system named is marigold (Tagetes spp.). As to the kind of experiment: Postemergence herbicidal activity, marigold. The following applies: post-emergence, 336 h, 2 lb/A. Summed up:
as §1

In test [13] the test system is morningglory (Ipomoca spp.). As to the kind of experiment: Postemergence herbicidal activity, morningglory. The following applies: Ipomoea, post-emergence, 336 h, 2 lb/A. Summed up:
as §1

Test [14] relates to tomato (Lycopersicon esculentum). As to the kind of experiment: Postemergence herbicidal activity, tomato. The following applies: Solanum lycopersicum, post-emergence, 336 h, Post, 2 lb/A. The method in brief: as §1
The test system of test [15] is velvetleaf (Abutilon theophrasti). As to the kind of experiment: Postemergence herbicidal activity, velvetleaf. The settings on record: Abutilon theophrasti, post-emergence, 336 h, 2 lb/A. Summed up:
as §2

Test [16] has as its system barnyardgrass (Echinochloa crusgalli). As to the kind of experiment: Postemergence herbicidal activity, barnyardgrass. The settings on record: Echinochloa crus-galli, post-emergence, 336 h; Post, 2 lb/A. The method in brief:
as §2

The test system of test [17] is downybrome (Bromus tectorum). The experiment in a line: Postemergence herbicidal activity, downybrome. The following applies: Bromus tectorum, post-emergence, 336 h, Post, 2 lb/A. Summed up: as §1
Test [18] concerns foxtail (Setaria spp.). As to the kind of experiment: Postemergence herbicidal activity, foxtail. The following applies: Setaria, post-emergence, 336 h, Post, 2 lb/A. The method in brief: as §1
The test system of test [19] is yellow nutsedge (Cyperus esculentus). As to the kind of experiment: Postemergence herbicidal activity, yellow nutsedge. The following applies: Cyperus, post-emergence, 336 h, 2 lb/A. The method in brief:
as §1

For test [20], the system named is wild oats (Avena fatua). As to the kind of experiment: Postemergence herbicidal activity, wild oats. The settings on record: Avena fatua, post-emergence, 336 h, Post, 2 lb/A; read-out: % control, Wild oat. The method in brief: as §1

The structures appear in SMILES notation.

`CC(Oc1ccc(Oc2ccc(C(F)(F)F)cc2Cl)cc1)C(=O)OCCN(C)C` (stereo not drawn) [Example 31]: the pest or weed control at 2241.7 g/ha was found to be 0% in test [1]; 0% with marigold (Tagetes spp.) [2]; 70% in [3]; 0% in test [4]; 0% in test [5]; 100% in test [6]. The pest or weed control at 2241.7 g/ha in test [7] was found to be 30%; with foxtail (Setaria spp.) [8], 100%; in test [9], 0%; with wild oats (Avena fatua) [10] it was 40%; in [11], 60%; in the test on marigold (Tagetes spp.) [12], 40%. Besides, the pest or weed control at 2241.7 g/ha in test [13] was found to be 80%; in [14], 90%; in test [15] it was 80%; in [16], 100%; in test [17] it was 100%; in the test with foxtail (Setaria spp.) [18], 100%. For the same compound, the values for the pest or weed control at 2241.7 g/ha (in test [19]; in the test on wild oats (Avena fatua) [20]) were 0% and 99%, respectively.
With `CCOC(=O)C(C)Oc1cccc(Oc2ccc(C(F)(F)F)cc2Cl)c1` (stereo not drawn) [Example 2], the pest or weed control at 2241.7 g/ha in test [1] is 0%; in the test on marigold (Tagetes spp.) [2], 90%; in [3], 0%; in [4], 100%; in test [5], 100%; in [6], 30%. For the same compound, the pest or weed control at 2241.7 g/ha in test [7] is 0%; in the test on foxtail (Setaria spp.) [8] it was 100%; in test [9], 0%; in the test on wild oats (Avena fatua) [10], 20%; in test [11], 90%; with marigold (Tagetes spp.) [12], 90%. Also, the pest or weed control at 2241.7 g/ha was determined as 100% in test [13]; 100% in test [14]; 100% in [15]; 60% in [16]; 40% in test [17]; 50% in the test with foxtail (Setaria spp.) [18]. For the same compound, the pest or weed control at 2241.7 g/ha amounted to 0% in test [19] and 50% with wild oats (Avena fatua) [20].
Take `CCC(C)OC(=O)C(C)Oc1ccc(Oc2ccc(C(F)(F)F)cc2Cl)cc1` (stereo not drawn) [Example 34]: the pest or weed control at 2241.7 g/ha in [1] stood at 0%; in the test with marigold (Tagetes spp.) [2], 0%; in test [3] it was 0%; in test [4] it was 0%; in test [5], 0%; in test [6], 100%. Further, the pest or weed control at 2241.7 g/ha in [7] was 95%; in the test on foxtail (Setaria spp.) [8] it was 100%; in test [9] it was 0%; in the test with wild oats (Avena fatua) [10], 80%; in test [11] it was 0%; with marigold (Tagetes spp.) [12], 0%. In addition, the pest or weed control at 2241.7 g/ha in test [13] came out at 0%; in [14], 0%; in test [15], 0%; in test [16], 100%; in test [17] it was 99%; in the test with foxtail (Setaria spp.) [18], 100%. Moreover, the pest or weed control at 2241.7 g/ha was 0% in test [19] and 100% in the test on wild oats (Avena fatua) [20].
